Data taken from patent US11001584B2, “Polymorphs” (SYNGENTA PARTICIPATIONS AG, priority 2016, dated 2021).

Test: Stability of polymorphs: equal amounts of both polymorphs stirred in IPA, form determined by DSC and high throughput pXRD
Format: physicochemical
Details: 24 hours
Description: Equal amounts of the polymorph of the invention and the Reference Form A polymorph were stirred in IPA at a range of temperatures. After 24 hours, the crystals were isolated and dried and their polymorphic form determined by DSC and high throughput pXRD.

Row | SMILES | DSC curves of the isolated crystals (polymorphic form present) (equal amounts of polymorph of the invention and Reference Form A stirred in IPA at a range of temperatures) | Powder XRD patterns of the isolated crystals (polymorphic form present) (equal amounts of polymorph of the invention and Reference Form A stirred in IPA, room temperature, 40° C. and 50° C.) | Relative polymorphic stability (stirred with Reference Form A in IPA, room temperature up to 50° C.)
1 | CCOC(=O)OC1=C(c2c(C)cc(Cl)cc2C)C(=O)N(C)C12CCN(OC)CC2 [Reference Form A] | marked reduction in the presence of Reference Form A | reflections characteristic of Reference Form A were absent | 
2 | CCOC(=O)OC1=C(c2c(C)cc(Cl)cc2C)C(=O)N(C)C12CCN(OC)CC2 [polymorph of the invention] |  |  | the stable form over the temperature range studied
